Experimental data as given in patent US20170275287A1, “NOVEL N2, N4, N7, 6-TETRASUBSTITUTED PTERIDINE-2,4,7-TRIAMINE AND 2, 4, 6, 7-TETRASUBSTITUTED PTERIDINE COMPOUNDS AND METHODS OF SYNTHESIS AND USE THEREOF” (Janus Biotherapeutics, Inc., priority 2014, published 2017).

These compounds were tested against T1, TLR7 (Homo sapiens, UniProt Q9NYK1) (assay: TLR7 antagonist assay in human PBMCs (ORN1075, IFNα ELISA)). Details: human PBMC, 0.5 μM ORN1075, IFNα readout.
T1 sequence (Q9NYK1 27-1049): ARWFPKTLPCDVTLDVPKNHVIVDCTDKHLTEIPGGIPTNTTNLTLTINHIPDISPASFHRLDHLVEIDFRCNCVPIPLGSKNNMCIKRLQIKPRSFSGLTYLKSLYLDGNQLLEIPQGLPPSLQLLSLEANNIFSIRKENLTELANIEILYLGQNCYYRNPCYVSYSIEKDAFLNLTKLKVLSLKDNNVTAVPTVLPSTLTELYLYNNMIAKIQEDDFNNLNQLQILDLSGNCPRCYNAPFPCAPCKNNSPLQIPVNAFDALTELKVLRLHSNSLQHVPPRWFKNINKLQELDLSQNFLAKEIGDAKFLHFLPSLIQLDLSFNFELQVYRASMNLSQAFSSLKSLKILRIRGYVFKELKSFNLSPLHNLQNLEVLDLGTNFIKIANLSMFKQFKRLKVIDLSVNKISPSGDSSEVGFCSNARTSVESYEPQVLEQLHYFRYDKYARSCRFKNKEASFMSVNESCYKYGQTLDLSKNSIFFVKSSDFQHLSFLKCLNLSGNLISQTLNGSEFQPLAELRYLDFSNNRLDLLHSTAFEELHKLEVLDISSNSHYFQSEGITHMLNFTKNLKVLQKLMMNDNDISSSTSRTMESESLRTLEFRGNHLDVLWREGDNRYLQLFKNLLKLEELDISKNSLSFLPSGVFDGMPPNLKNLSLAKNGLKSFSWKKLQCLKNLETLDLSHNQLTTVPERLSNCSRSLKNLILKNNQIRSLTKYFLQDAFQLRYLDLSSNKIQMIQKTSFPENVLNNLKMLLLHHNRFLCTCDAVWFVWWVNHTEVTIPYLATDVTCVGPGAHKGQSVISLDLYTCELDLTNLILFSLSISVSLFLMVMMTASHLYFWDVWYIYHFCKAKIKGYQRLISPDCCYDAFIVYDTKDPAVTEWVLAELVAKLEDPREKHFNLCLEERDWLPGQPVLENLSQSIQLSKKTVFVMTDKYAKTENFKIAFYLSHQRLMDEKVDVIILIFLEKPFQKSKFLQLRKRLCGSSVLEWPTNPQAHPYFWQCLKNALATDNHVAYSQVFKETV
Format: cell-based
Set-up: PBMCs were isolated from unpurified buffy coat from healthy human donors; host or cells: primary human PBMCs
Experimental: PBMCs were isolated from unpurified buffy coat from healthy human donors (Blood Research Components, LLC). For antagonist testing, cells were plated on 96-well U-bottom plates at 3×10^6 cells/ml. Antagonist compounds were added to cells in duplicate wells and titrated from 10 μM in 1:3 serial dilutions (8 antagonist concentrations tested in total). After approximately 30 minutes, cells were stimulated with agonist compound (see table 2 for agonist concentrations). After stimulation, cells were incubated overnight at 37° C. To increase the stability of the ssRNA, 3 μg/ml DOTAP (Roche) was added to ORN1075 agonist solutions. All dilutions were made in RPMI-1640 media (Sigma, cat.# R7388)+5% human male AB sera (Sigma, cat.# H4522)+1× Penicillin/Streptomycin solution (VWR, cat.#82026-730).
TLR activity was measured in PBMCs and neutrophils by ELISA using cytokine readouts specific for the TLR of interest.
IFNα was measured as a readout for TLR7 and TLR9 activity in PBMCs stimulated with either ORN1075, or ODN2395, respectively, using a Human Pan-IFNα ELISA kit (MABTech, cat.#3425-1H-20). PBMC supernatant was diluted 1:3 in PBS+0.05% tween-20+0.1% BSA. Absorbance at 450 nm was recorded using a Molecular Devices SpectraMax340PC plate reader. The IC50 for each antagonist was subsequently calculated following the method described below.
Raw ELISA datasets for each 96-well plate, consisting of absorbance readings at […], were first imported in Microsoft Excel to calculate the average absorbance for each standard or antagonist concentration. The averaged data was then imported into SigmaPlot v.11.0 where a standard curve was calculated and used to extrapolate the relative concentration of TLR readout (TNFα, IFNα, etc.) produced. The dose-response curve of each antagonist was then plotted with SigmaPlot v.11.0 on a Log scale. Concentrations of TLR readout were converted to a percentage relative to the average maximum concentration for that ELISA plate in Microsoft Excel. The IC50 for each antagonist was then determined with the SigmaPlot regression wizard using a 4-parameter Hill equation. Each antagonist was tested in a minimum of 3 independent experiments and IC50 results were compiled and averaged using Microsoft Excel.

Which IC50 does the source give for `CN1CCN(c2nc(NCCN3CCOCC3)c3ncc(-c4ccccc4)nc3n2)CC1` [JB6059] here?
The IC50 was 143 nM.

For `CN1CCN(c2nc3nc(-c4ccccc4)nc(NCCN4CCOCC4)c3nc2OCCN2CCOCC2)CC1` [JB6116], which IC50 is on record?
The IC50 was 81 nM.

For `CN1CCN(c2nc(NCCN3CCOCC3)c3nc(Cl)c(NCCN4CCOCC4)nc3n2)CC1` [JB6121, 6-chloro-2-(4-methylpiperazin-1-yl)-N^4,N^7-bis(2-morpholinoethyl)pteridine-4,7-diamine], which IC50 is on record?
The IC50 was 25 nM.

`CCOc1nc2c(NCCN3CCCC3)nc(-c3ccccc3)nc2nc1N1CCN(C)CC1` [JB6131] was tested. Which IC50 did it give?
The IC50 was 64 nM.

How did the IC50 turn out when `CCCCNc1nc(NCCN2CCOCC2)c2nc(Cl)c(NCCN3CCOCC3)nc2n1` [JB6140] was run?
The IC50 was 238 nM.

For `C[C@@H]1CN(CCNc2nc3nc(N4CCN(C)CC4)nc(NCCN4C[C@@H](C)O[C@@H](C)C4)c3nc2Cl)C[C@H](C)O1` [JB6143], which IC50 is on record?
Its IC50 is 24 nM.

For `Clc1nc2c(NCCN3CCOCC3)nc(N3CCOCC3)nc2nc1NCCN1CCOCC1` [JB6147], which IC50 is on record?
Its IC50 is 223 nM.

`COCCN1CCN(c2nc(NCCN3CCOCC3)c3nc(Cl)c(NCCN4CCOCC4)nc3n2)CC1` [JB6160] was tested. Which IC50 did it give?
The IC50 was 28 nM.

Which IC50 does the source give for `Clc1nc2c(NCCN3CCOCC3)nc(NCc3ccccc3)nc2nc1NCCN1CCOCC1` [JB6172] here?
The IC50 was 62 nM.

`CCOc1nc2c(NCCN3CCOCC3)nc(NCc3ccccc3)nc2nc1NCCN1CCOCC1` [JB6180] was tested. Which IC50 did it give?
The IC50 was 502 nM.

For `CCCCNc1nc(NCCN2CCOCC2)c2nc(SCC)c(NCCN3CCOCC3)nc2n1` [JB6185], which IC50 is on record?
Its IC50 is 74 nM.
